Results: patent publication US5589337A (priority 1995, dated 1996)
Structures can show the parent of a compound that is named as a salt. Where two headings read alike, the source gives them in different places.

What was measured:
sodA gene = conditions: cited from earlier work
in vitro [1] = conditions: clpb promoter-lacz e. coli
[2] = groE promoter-lacZ induction (preferred kit, β-galactosidase); conditions: groe promoter-lacz e. coli
[3] = micF promoter-lacZ induction (preferred kit, β-galactosidase); conditions: promoter-lacz bacterial strain
fepB promoter = assay: fepB promoter-controlled β-galactosidase expression (Example 7); conditions: 2,2'-dipyridyl 0-160 μM; FIG. 6
dinD promoter [4] = assay: dinD promoter-controlled β-galactosidase expression (Example 7); conditions: for dinD controlled β-galactosidase expression: 5 μg/ml, 0 min 321
dinD promoter [5] = conditions: cited from earlier work
adaA promoter = assay: adaA (ada-alkA) promoter-controlled β-galactosidase expression (Example 7)
soi28 promoter [6] = assay: soi28 promoter-lacZ induction (preferred kit, β-galactosidase)
dinD promoter [7] = system: dinD promoter
nfo promoter = assay: nfo promoter-controlled β-galactosidase expression (Example 7)
DNA strand breaks = conditions: cited from earlier work
[8] = soi28 promoter-lacZ induction (preferred kit, β-galactosidase); conditions: promoter-lacz bacterial strain
[9] = nfo promoter-lacZ induction (preferred kit, β-galactosidase); conditions: nfo promoter-lacz e. coli
in vitro [10] = conditions: dind promoter-lacz e. coli
topA promoter = assay: topA promoter-lacZ induction (preferred kit, β-galactosidase); conditions: Escherichia coli, read-out: Fold Induction, topA
micF promoter = assay: micF promoter-lacZ induction (preferred kit, β-galactosidase)
clpB promoter = conditions: 0.32 mg/ml
ada gene = conditions: cited from earlier work
micF gene = conditions: cited from earlier work
katG gene = conditions: cited from earlier work
ahp gene = conditions: cited from earlier work
[11] = katG promoter-lacZ induction (preferred kit, β-galactosidase); conditions: promoter-lacz bacterial strain
merR promoter = assay: merR promoter-lacZ induction (preferred kit, β-galactosidase)
ada promoter = assay: ada promoter-lacZ induction (preferred kit, β-galactosidase); conditions: MMS 470 μM to 1880 μM; FIG. 9
zwf promoter = assay: zwf promoter-lacZ induction (preferred kit, β-galactosidase); conditions: Escherichia coli, read-out: Fold Induction, zwf
gsh gene = conditions: cited from earlier work
soi17 promoter = assay: soi17 promoter-controlled β-galactosidase expression (Example 7); conditions: NaCl 0-0.8M; FIG. 5
proU promoter = assay: proU promoter-controlled β-galactosidase expression (Example 7); conditions: NaCl 0-0.8M; FIG. 5
ndh promoter = assay: ndh promoter-controlled β-galactosidase expression (Example 7)
[12] = system: mutant strains of Salmonella typhimurium; conditions: cited from earlier work
soi28 promoter [13] = assay: soi28 promoter-controlled β-galactosidase expression (Example 7)
nfo gene = conditions: cited from earlier work
rdc promoter = conditions: cited from earlier work
zwf gene = conditions: cited from earlier work
[14] = 2,2'-dipyridyl 0-160 μM, FIG. 6

c1cnc2c(c1)ccc1cccnc12 [1, 10-phenanthroline]
sodA gene induction (sodA gene): also induced

CCCO [1-propanol]
fold induction (in vitro [1]): 5.6 | fold induction [2]: 1.5 | fold induction [3]: 4

c1ccc(-c2ccccn2)nc1 [2,2'-dipyridyl]
induction of fepB promoter (chelating metals) (fepB promoter): fepB induction | effect on DNA replication (sfiA promoter) (sfiA promoter; [14]): no effect on DNA replication (sfiA promoter) | induction of sodA promoter (superoxide formation) (sodA promoter; [14]): sodA induction | sodA gene induction (sodA gene): also induced

O=[N+]([O-])c1cc[n+]([O-])c2ccccc12 [4-NQO, 4-nitroquinoline oxide]
induction of dinD promoter (dinD promoter [4]; 4-NQO 0-100 picomolar, FIG. 2): induction of the sfiA and dinD promoters | dinD induction (dinD promoter [5]): Typical inducers of dinD | induction of sfiA promoter (sfiA promoter; 4-NQO 0-100 picomolar, FIG. 2): induction of the sfiA and dinD promoters | induction of adaA promoter (DNA alkylation) (adaA promoter; 4-NQO 0-100 picomolar, FIG. 2): not DNA alkylation (adaA promoter) | induction of soi28 promoter (soi28 promoter [6]; 4-NQO, FIG. 11): to a lesser extent | induction of dinD promoter (dinD promoter [7]; 4-NQO, FIG. 11): causes induction of the dinD promoter | induction of nfo promoter (nfo promoter; 4-NQO 0-100 picomolar, FIG. 2): minor, but dose-dependent induction

O=C1O[C@H]([C@@H](O)CO)C(O)=C1O [Ascorbic acid]
number of hydrogen peroxide induced DNA strand breaks (DNA strand breaks): reduce the number of hydrogen peroxide induced DNA strand breaks

ClC(Cl)Cl [Chloroform]
fold induction (in vitro [1]): 4.5 | fold induction [8]: 2

C[S+](C)[O-] [DMSO]
fold induction (in vitro [1]): 2 | fold induction [9]: 1.6 | fold induction (in vitro [10]): 2.2 | fold induction at 25 % (topA promoter): 1.7

O=[N+]([O-])c1ccc(F)c([N+](=O)[O-])c1 [Dinitrofluoro benzene]
Fold Induction, micF (micF promoter; 0.32 mg/ml): 3.2 fold | Fold Induction, clpB (clpB promoter): 2 fold

O=C(O)CN(CCN(CC(=O)O)CC(=O)O)CC(=O)O [EDTA]
sodA gene induction (sodA gene): also induced

CCOS(C)(=O)=O [EMS, ethlymethanosulfate]
ada gene expression induction (ada gene): induce ada gene expression

CCO [Ethanol]
fold induction [8]: 1.7 | fold induction [3]: 2.5 | micF gene induction (micF gene): also induced

OO [Hydrogen peroxide]
dinD induction (dinD promoter [5]): does not respond to oxidative DNA damage, except when cells are exposed to extremely high concentrations of H2 O2 | katG gene induction (katG gene): can be induced | ahp gene induction (ahp gene): induced | fold induction (in vitro [10]): 3 | fold induction [11]: 2

[Cl][Hg][Cl] [Mercuric chloride]
Fold Induction, merR (merR promoter; 2 ng/ml): 27 fold | induction of merR promoter (merR promoter; mercuric chloride, FIG. 10): specifically induces the merR promoter

COS(C)(=O)=O [Methyl Methane-sulfonate, methyl methanesulfonate]
induction of dinD promoter (strand breaks) (dinD promoter [4]; MMS 0-40 nM, FIG. 3): not via stand breaks (dinD promoter) | induction of ada promoter (ada promoter): specifically induces the ada promoter | ada gene expression induction (ada gene): induce ada gene expression | induction of adaA promoter (DNA alkylation) (adaA promoter; MMS 0-40 nM, FIG. 3): induction of the adaA promoter | induction of nfo promoter (oxygen-dependent damage) (nfo promoter; MMS 0-40 nM, FIG. 3): not oxygen-dependent (nfo promoter)

CO[C@@]12[C@H](COC(N)=O)C3=C(C(=O)C(C)=C(N)C3=O)N1C[C@@H]1N[C@@H]12 [Mitomycin C]
dinD controlled β-galactosidase expression (dinD promoter [4]; 15 min exposure): 350 | dinD controlled β-galactosidase expression (dinD promoter [4]; 25 min exposure): 1036 | dinD controlled β-galactosidase expression (dinD promoter [4]; 35 min exposure): 811 | dinD controlled β-galactosidase expression (dinD promoter [4]; 55 min exposure): 1204 | fold induction at 5 µg/mL (dinD promoter [4]; Escherichia coli, 55 min, read-out: dinD promoter induction): ~4 | dinD induction (dinD promoter [5]): Typical inducers of dinD

CN(C)C=O [N,N Dimethyl formamide]
fold induction (in vitro [1]): 2.5 | fold induction [3]: 3.3 | fold induction at 0.8 % (zwf promoter): 1.5

CCN1C(=O)C=CC1=O [N-ethylmaleimide]
gsh gene induction (gsh gene): induced

[Cl-].[Na+] [NaCl, sodium chloride]
induction of soi17 promoter (superoxide formation) (soi17 promoter): no induction of sodA or soi17 | induction of proU promoter (proU promoter): induces the proU promoter | induction of sodA promoter (superoxide formation) (sodA promoter; NaCl 0-0.8M, FIG. 5): no induction of sodA or soi17

C[n+]1ccc(-c2cc[n+](C)cc2)cc1 [Paraquat]
induction of ndh promoter (ndh promoter): negligible effect | ndh induction, galactosidase activity (ndh promoter; 50 μM, 0 μM control 464): 980 units | effect on merR promoter (merR promoter): apparent inhibition | response in Ames Assay [12]: neither compound produces a positive response | induction of soi28 promoter (soi28 promoter [6]): specific induction of the soi28 and micF promoters | effect on dinD promoter (dinD promoter [7]): apparent inhibition | induction of micF promoter (micF promoter): specific induction of the soi28 and micF promoters | induction of nfo promoter (nfo promoter): induced the nfo promoter | nfo induction, galactosidase activity (nfo promoter; 50 μM, 0 μM control 2952): 8100 units | induction of soi28 promoter (soi28 promoter [13]): cause induction of the soi28 promoter | soi28 induction, galactosidase activity (soi28 promoter [13]; 50 μM, 0 μM control 670): 2370 units | sodA gene induction (sodA gene): strongly induced | micF gene induction (micF gene): induced | fold induction at 8000 µg/mL (zwf promoter): 3 | nfo induction (nfo gene): specifically induced

Oc1ccccc1 [Phenol]
fold induction (in vitro [1]): 1.5 | fold induction [2]: 2.2

CC(C)(C)c1cc(O)ccc1O [Tert-butyl hydroquinone]
fold induction at 2000 µM (in vitro [1]): 2.8 | fold induction at 2000 µM [3]: 2.6

CC1=CC(=O)c2ccccc2C1=O [menadione]
sodA gene induction (sodA gene): strongly induced | nfo induction (nfo gene): specifically induced

CN(C)c1ccc2nc3ccc(=[N+](C)C)cc-3sc2c1 [methylene blue]
sodA gene induction (sodA gene): strongly induced

C[n+]1c2ccccc2nc2ccccc21 [phenazine methyl sulfate]
sodA gene induction (sodA gene): strongly induced

CC1=CC(=O)c2c(O)cccc2C1=O [plumbagin]
response in Ames Assay [12]: neither compound produces a positive response | induction of soi28 promoter (soi28 promoter [13]; plumbagin 0-160 μM, FIG. 4): cause induction of the soi28 promoter | sodA gene induction (sodA gene): strongly induced

COC1=C(N)C(=O)c2nc(-c3nc(C(=O)O)c(C)c(-c4ccc(OC)c(OC)c4O)c3N)ccc2C1=O [streptonigrin]
sodA gene induction (sodA gene): strongly induced

OCC(O)CS (stereo not drawn) [thioglycerol]
rdc promoter induction (rdc promoter): induced

bleomycin
dinD induction (dinD promoter [5]): Typical inducers of dinD

nitric oxide
zwf gene induction (zwf gene): induced
